Data set [1] concerns promoter region of the gene encoding human apoAI. As to the kind of experiment: Activity to enhance the expression of human apoAI (apoAI promoter-luciferase reporter in HepG2 cells). Type of data set: cell-based. The following applies: HepG2 cells stably expressing human apoAI promoter-firefly luciferase reporter; 24 hours incubation; 0 to 10 μg/mL; control DMSO. On the procedure:
The promoter region of the gene encoding human apoAI was isolated, and ligated upstream the structure gene of firefly luciferase to construct a reporter plasmid. The reporter plasmid and a marker plasmid conferring the neomycin resistance were co-infected to cell lines derived from human hepatoma, HepG2 cells, and the cell lines were incubated in a selection medium comprising DMEM medium containing 10% fetal calf serum supplemented with G418 (Final concentration: 0.7 mg/mL, Gibco) to give established strains that stably expressed the reporter molecule. The strains were seeded to a 96-well culture plates at a density of 50,000 cells per well, and incubated for 48 hours at 37° C. under an atmosphere of 5% carbon dioxide. Then, a solution of the compounds according to the invention in DMSO was added to the wells at final concentrations of 0 to 10 μg/mL. After further incubation for 24 hours, the cells were added with a luciferase assay reagent (Piccagene LT 7.5 registered trade mark, Toyo Ink, KK), and the luciferase activity was determined using a luminometer (MicroBeta™ TRILUX, 1 sec/well, Wallac). The concentration of the compounds, which intensified the luciferase activity twice compared to that of control (DMSO without any compound of the invention added) was set as the minimal effective dose (MED).
On the technique in general: A reporter such as luciferase makes a cellular process visible.

Broadly, the melting point is the temperature of the solid-liquid transition. In the case of `O=C(C=Cc1ccccc1)Nc1cnc2ccccc2n1` [Ia-9, 3-Phenyl-N-quinoxalin-2-yl-acrylamide], the melting point was in the range of 177 to 178 °C.

For `Cc1ccc(NC(=O)c2ccc(Cl)cc2)cc1` [Ib-17, 4-Chloro-N-(4-tolyl)benzamide], in data set [1], the “MED (minimal effective dose): concentration which intensified the luciferase activity twice compared to that of control” value worked out at 0.30 µg/mL.

The values above are taken from patent publication US8106051B2, “Utilities of amide compounds” (Shionogi & Co., Ltd., priority 2001, dated 2012).
